According to patent publication US20250034182A1, “PHOSPHOLIPID COMPOUNDS AND METHODS OF MAKING AND USING THE SAME” (priority 2021, published 2025):

Legend:
Assay type in all cases: cell-based
[1] = tested on: CAN97-83-GFP1 (A2a) hMPV in H1-HeLa cells; test: hMPV H1-Hela EC50, anti-nucleoprotein ELISA (Example X); conditions: human metapneumovirus, 96 h, read-out: hMPV H1-Hela EC50 (nM) (per Ex. X)
Protocol: The human metapneumoavirus (hMPV) anti-viral assay is an anti-nucleoprotein ELISA performed in infected H1-HeLa cells. H1-HeLa cells were maintained in Dulbecco's Modified Eagle's Medium with high glucose (Gibco, Cat #: 11995073) supplemented with 10% FBS (HyClone, Cat #: SH303396.03), 100 units/mL penicillin and 100 μg/mL streptomycin (Gibco, Cat #: 15140122). One day before infection, H1-HeLa cells were seeded into 96-well plates (Corning, Cat. #: 3903) at 0.1 mL/well at 1.5×10^5 cells/mL in Opti-MEM (Gibco, Cat #: 31985070) supplemented with 2% FBS, and were incubated at 37° C. in a 100% humid atmosphere containing 5% (v/v) CO2 overnight. On the next day, CAN97-83-GFP1 (A2a) hMPV was diluted in Opti-MEM medium containing 200 μg/mL CaCl2) and 2 μg/mL TPCK treated trypsin and distributed to the 96-well plates at 0.1 mL/well for an MOI=0.1. Test compounds were distributed to each well using a HP D300e digital dispenser with a final volume of 200 µL/well. After the plates were centrifuged at 700 g for one hour at room temperature, they were maintained in a humidified chamber at 37-C with 5% (v/v) CO2 for 96 hours. After the incubation, the medium was removed, and the plates were fixed with 0.1 mL/well 1% formaldehyde for 15 min at room temperature. The fixative was removed, the plates were air dried for 30-60 minutes, and then permeabilized with 0.1 mL/well 0.5% Triton X-100 in PBS for five minutes at room temperature. Following permeabilization, the plates were washed once with 0.1 mL/well blocking buffer consisting of 10% FBS (HyClone, Cat #: SH303396.03), 5% dry milk (AmericanBio, Cat #: AB10109-01000), and 0.1% Tween 20 (EMD Millipore, Cat #655204) in PBS. The plates were blocked with 0.1 mL/well blocking buffer for 60 minutes at 37° C. afterward. The blocking buffer was removed and 0.05 mL/well human metapneumovirus nucleocapsid antibody (Sigma, Cat #MAB80121) diluted 1:500 in Blocking buffer was added and incubated for two hours at 37-C. The plates were then washed with 0.2 mL/well 0.1% Tween 20/PBS five times, followed by addition of 0.05 mL/well of horseradish peroxidase (HRP) conjugated goat anti-mouse IgG antibody (Fisher Scientific, Cat #501077607) at 1:2000 dilution in the blocking buffer. After one-hour incubation at 37-C, plates were washed five times with 0.2 mL/well 0.1% tween 20 in PBS. The HRP signals were developed by adding 0.1 mL/well of TMB reagent (Thermo Scientific, Cat #: ENN301) and incubating at room until the positive control was apparent. At that point, the reaction was stopped by adding 0.1 mL/well TMB stop solution (SeraCare, Cat #: 5150-0021). The absorbance was measured at 450 nm with an EnVision plate reader. The relative absorbance was calculated by normalizing the absorbance of the compound-treated groups to that of the DMSO-treated groups (set as 100%). EC50 values were calculated using a nonlinear four parameter variable slope regression model.

[2] = in vitro; conditions: human
Protocol: H1-HeLa cell viability was measured using the CellTiter-Glo® Luminescent Cell Viability Assay kit (Promega, Cat #G7573) according to the manufacturer's protocol. H1-HeLa cells were maintained in Dulbecco's Modified Eagle's Medium with high glucose (Gibco, Cat #: 11995073) supplemented with 10% FBS (HyClone, Cat #: SH303396.03), 100 units/mL penicillin and 100 µg/mL streptomycin (Gibco, Cat #: 15140122). One day before compound treatment, H1-HeLa cells were seeded at […] into 96-well plates (Corning, Cat #3904) in Opti-MEM (Gibco, Cat #: 31985070) supplemented with 2% FBS, and were incubated at 37° C. in a 100% humid atmosphere containing 5% (v/v) CO2. After overnight incubation, the cells were treated with three-fold serial dilutions of the compound. At 96 hours post treatment, CellTiter-Glo reagents were added into each well and luminescence signals were recorded by an EnVision plate reader. The relative cell viability was calculated by normalizing the absorbance of the compound-treated groups to that of the DMSO-treated groups (set as 100% viability) and 10 μM puromycin treated groups (set as 0% viability). The CC50 (compound concentration for reducing 50% of cell viability) was calculated using a nonlinear regression model (four parameters).

[3] = in vitro; conditions: human; remark: listed apart in the source
Protocol: Huh7 hepatoblastoma cells were seeded onto 96-well plates and incubated at 37° C. with 5% CO2 overnight. The plates were seeded at a cell concentration that will yield >70% confluent monolayers in each well after overnight incubation. Eight 3-fold serial dilutions of compounds were diluted in test media (MEM supplemented with 2% FBS and 50 μg/mL gentamicin). The highest test compound concentration was 50 μg/mL. 100 μL of each concentration was added to 5 test wells on the 96-well plate. Of these 5 test wells, 3 wells of each dilution were infected with dengue virus type 2, diluted in test media (approximately 2000 CCID50 per well for an MOI of 0.07). Test medium (100 μL) with no virus was added to 2 wells to represent the uninfected cytotoxicity controls. Six additional infected wells received 100 μL media alone as untreated virus controls. Further, 100 μL of media alone was added to 6 uninfected wells to serve as uninfected, untreated controls. Cultures were incubated at 37° C.+5% CO2 until >80% CPE is observed. After cytopathic effect (CPE) is observed microscopically, 0.011% neutral red dye was added for approximately 2 hours. The neutral red dye was removed and wells were rinsed once with PBS to remove residual, unincorporated dye. A 50:50 Sorensen citrate buffer/ethanol solution was added and incubated at room temperature for >30 minutes with agitation, followed by measurement of neutral red dye using a spectrophotometer at 540 nm. The resulting optical density measurement was converted to percent signal of the infected, untreated cell control normalizing to virus controls. EC50 and CC50 values were determined by linear regression analysis.

SMILES	EC50 [1]	CC50 at 96 h [2]	CC50 [3]
CCCCCCCCCCCCCCCCCCC[C@H](COP(=O)(O)OC[C@@]1(C#N)O[C@@H](c2ccc3c(N)ncnn23)[C@H](O)[C@@H]1O)OCc1ccc(-n2cncn2)c(C#N)c1 [Compound 30, ((2R,3S,4R)-5-(4-aminopyrrolo[2,1-f][1,2,4]triazin-7-yl)-2-cyano-3,4-dihydroxytetrahydrofuran-2-yl)methyl ((R)-2-((3-cyano-4-(1H-1,2,4-triazol-1-yl)benzyl)oxy)henicosyl) hydrogen phosphate]	188 nM	4.96 µM	5.9 µM
CCCCCCCCCCCCCCCCCCOC[C@H](COP(=O)(O)OC[C@@]1(C#N)O[C@@H](c2ccc3c(N)ncnn23)[C@H](O)[C@@H]1O)OCc1ccc(C#N)c(Cl)c1 [Compound 7, ((2R,3S,4R,5S)-5-(4-aminopyrrolo[2,1-f][1,2,4]triazin-7-yl)-2-cyano-3,4-dihydroxytetrahydrofuran-2-yl)methyl ((R)-2-((3-chloro-4-cyanobenzyl)oxy)-3-(octadecyloxy)propyl) hydrogen phosphate]	358 nM	3.88 µM	19 µM
CCCCCCCCCCCCCCCCCCOC[C@H](COP(=O)(O)OC[C@@]1(C#N)O[C@@H](c2ccc3c(N)ncnn23)[C@H](O)[C@@H]1O)OCc1cc(F)cc(C#N)c1 [Compound 1, ((2R,3S,4R,5S)-5-(4-aminopyrrolo[2,1-f][1,2,4]triazin-7-yl)-2-cyano-3,4-dihydroxytetrahydrofuran-2-yl)methyl ((R)-2-((3-cyano-5-fluorobenzyl)oxy)-3-(octadecyloxy)propyl) hydrogen phosphate]	440 nM	3.62 µM	18 µM
CCCCCCCCCCCCCCCCCC[C@H](COP(=O)(O)OC[C@@]1(C#N)O[C@@H](c2ccc3c(N)ncnn23)[C@H](O)[C@@H]1O)OCc1cc(Cl)cc(C#N)c1 [Compound 81, ((2R,3S,4R,5S)-5-(4-aminopyrrolo[2,1-f][1,2,4]triazin-7-yl)-2-cyano-3,4-dihydroxytetrahydrofuran-2-yl)methyl ((R)-2-((3-chloro-5-cyanobenzyl)oxy)icosyl) hydrogen phosphate]	453 nM	4.52 µM	
CCCCCCCCCCCCCCCCCCC[C@H](COP(=O)(O)OC[C@@]1(C#N)O[C@@H](c2ccc3c(N)ncnn23)[C@H](O)[C@@H]1O)Oc1ccc(C#N)c(OC(C)C)c1 [Compound 38, ((2R,3S,4R,5S)-5-(4-aminopyrrolo[2,1-f][1,2,4]triazin-7-yl)-2-cyano-3,4-dihydroxytetrahydrofuran-2-yl)methyl ((R)-2-(4-cyano-3-isopropoxyphenoxy)henicosyl) hydrogen phosphate]	137 nM	6.19 µM	5.8 µM
CCCCCCCCCCCCCCCCC[C@H](COP(=O)(O)OC[C@@]1(C#N)O[C@@H](c2ccc3c(N)ncnn23)[C@H](O)[C@@H]1O)OCc1cc(Cl)cc(C#N)c1 [Compound 76, ((2R,3S,4R)-5-(4-aminopyrrolo[2,1-f][1,2,4]triazin-7-yl)-2-cyano-3,4-dihydroxytetrahydrofuran-2-yl)methyl ((R)-2-((3-chloro-5-cyanobenzyl)oxy)nonadecyl) hydrogen phosphate]	517 nM	6.39 µM	
CCCCCCCCCCCCCCCCC[C@H](COP(=O)(O)OC[C@@]1(C#N)O[C@@H](c2ccc3c(N)ncnn23)[C@H](O)[C@@H]1O)OCc1cc(F)cc(C#N)c1 [Compound 36, ((2R,3S,4R,5S)-5-(4-aminopyrrolo[2,1-f][1,2,4]triazin-7-yl)-2-cyano-3,4-dihydroxytetrahydrofuran-2-yl)methyl ((R)-2-((3-cyano-5-fluorobenzyl)oxy)nonadecyl) hydrogen phosphate]	1100 nM	9.56 µM	17 µM
CCCCCCCCCCCCCCCCOC[C@@H](COP(=O)(O)OC[C@@]1(C#N)O[C@@H](c2ccc3c(N)ncnn23)[C@H](O)[C@@H]1O)OCc1cc(F)cc(C#N)c1 [Compound 88, ((2R,3S,4R,5S)-5-(4-aminopyrrolo[2,1-f][1,2,4]triazin-7-yl)-2-cyano-3,4-dihydroxytetrahydrofuran-2-yl)methyl ((S)-2-((3-cyano-5-fluorobenzyl)oxy)-3-(hexadecyloxy)propyl) hydrogen phosphate]	348 nM	2.21 µM	
CCCCCCCCCCCCCCCC[C@@H](COP(=O)(O)OC[C@@]1(C#N)O[C@@H](c2ccc3c(N)ncnn23)[C@H](O)[C@@H]1O)OCc1cc(F)cc(C#N)c1 [Compound 79, ((2R,3S,4R,5S)-5-(4-aminopyrrolo[2,1-f][1,2,4]triazin-7-yl)-2-cyano-3,4-dihydroxytetrahydrofuran-2-yl)methyl ((S)-2-((3-cyano-5-fluorobenzyl)oxy)octadecyl) hydrogen phosphate]	1610 nM	6.74 µM	
CCCCCCCCCCCCCCCCCCOC[C@H](COP(=O)(O)OC[C@@]1(C#N)O[C@@H](c2ccc3c(N)ncnn23)[C@H](O)[C@@H]1O)OCc1cccc(C#N)n1 [Compound 68, ((2R,3S,4R)-5-(4-aminopyrrolo[2,1-f][1,2,4]triazin-7-yl)-2-cyano-3,4-dihydroxytetrahydrofuran-2-yl)methyl ((R)-2-((6-cyanopyridin-2-yl)methoxy)-3-(octadecyloxy)propyl) hydrogen phosphate]	214 nM	8.71 µM	
CCCCCCCCCCCCCCCCCCC[C@H](COP(=O)(O)OC[C@@]1(C#N)O[C@@H](c2ccc3c(N)ncnn23)[C@H](O)[C@@H]1O)OCc1cc(Cl)cc(C#N)c1 [Compound 82, ((2R,3S,4R,5S)-5-(4-aminopyrrolo[2,1-f][1,2,4]triazin-7-yl)-2-cyano-3,4-dihydroxytetrahydrofuran-2-yl)methyl ((R)-2-((3-chloro-5-cyanobenzyl)oxy)henicosyl) hydrogen phosphate]	1120 nM	4.03 µM	
